For series [1], the target named is T1, CYP2A6 (Homo sapiens, UniProt P11509).
T1 sequence (P11509 1-494): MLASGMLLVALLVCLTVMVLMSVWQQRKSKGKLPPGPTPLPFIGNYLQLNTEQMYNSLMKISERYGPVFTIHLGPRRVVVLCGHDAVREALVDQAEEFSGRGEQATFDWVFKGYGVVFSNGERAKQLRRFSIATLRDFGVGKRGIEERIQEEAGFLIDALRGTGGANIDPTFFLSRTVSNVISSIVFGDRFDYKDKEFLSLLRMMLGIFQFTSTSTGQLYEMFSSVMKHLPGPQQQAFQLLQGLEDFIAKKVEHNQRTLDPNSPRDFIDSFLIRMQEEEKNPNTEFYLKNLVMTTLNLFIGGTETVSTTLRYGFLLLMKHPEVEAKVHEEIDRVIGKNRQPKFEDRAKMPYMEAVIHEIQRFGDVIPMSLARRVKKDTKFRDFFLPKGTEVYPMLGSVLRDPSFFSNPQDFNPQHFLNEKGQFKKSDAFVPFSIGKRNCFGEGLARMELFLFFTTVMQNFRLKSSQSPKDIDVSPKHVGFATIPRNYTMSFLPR
As to the kind of experiment: Direct CYP inhibition assay in pooled HLMs, CYP2A6 (coumarin). The format is in vitro ADME. Particulars: pooled HLMs 0.2 mg/mL; substrate coumarin 5 μM; 10 min; 95% CI in parentheses; read-out: IC50 against CYP2A6.

The target of series [2] is T2, CYP2B6 (Homo sapiens, UniProt P20813).
T2 sequence (P20813 1-491): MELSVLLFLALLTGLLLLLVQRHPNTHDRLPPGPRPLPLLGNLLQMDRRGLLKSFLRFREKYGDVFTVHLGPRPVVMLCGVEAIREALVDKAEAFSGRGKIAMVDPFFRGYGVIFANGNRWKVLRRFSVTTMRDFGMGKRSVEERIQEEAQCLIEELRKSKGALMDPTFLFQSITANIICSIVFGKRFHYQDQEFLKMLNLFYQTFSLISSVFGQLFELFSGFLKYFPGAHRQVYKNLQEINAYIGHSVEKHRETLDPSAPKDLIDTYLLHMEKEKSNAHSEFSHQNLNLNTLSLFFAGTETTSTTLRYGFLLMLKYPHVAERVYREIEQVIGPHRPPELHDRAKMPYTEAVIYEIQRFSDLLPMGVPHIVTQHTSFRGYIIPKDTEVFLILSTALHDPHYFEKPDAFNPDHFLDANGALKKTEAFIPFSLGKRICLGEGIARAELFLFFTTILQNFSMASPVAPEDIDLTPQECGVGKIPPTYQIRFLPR
As to the kind of experiment: Direct CYP inhibition assay in pooled HLMs, CYP2B6 (bupropion). Particulars: read-out: IC50 against CYP2B6; pooled HLMs 0.2 mg/mL; substrate bupropion 50 μM; 10 min; 95% CI in parentheses.

For series [3], the target named is CYP2C19 (Homo sapiens, UniProt P33261). As to the kind of experiment: Direct CYP inhibition assay in pooled HLMs, CYP2C19 (S-mephenytoin). Particulars: read-out: IC50 against CYP2C19; pooled HLMs 0.2 mg/mL; substrate (S)-mephenytoin 100 μM; 10 min; 95% CI in parentheses.
Series [4] deals with T1, CYP2A6. As to the kind of experiment: Metabolism-dependent inhibition assay (IC50 shift) in pooled HLMs, CYP2A6. Conditions: substrate coumarin; for IC50: pooled HLMs, 95% CI in parentheses. The protocol: (§1) The experiments for determining metabolism-dependent inhibition were conducted utilizing a non-dilution method. […] The pre-incubation was initiated by the addition of 1 mM NADPH and incubation for 30 min. Subsequently, final incubation was performed with the addition of a substrate (5 μM coumarin or 50 μM bupropion) in the presence of NADPH for 10 min; the total volume of the mixture was 200 μL. […] Mixtures were subjected to centrifugation at 3000× g for 20 min at 4 °C, and the supernatants were analyzed using LC-MS/MS. The experiment was performed using three separate samples.
(§2) The CYP-mediated activities in the presence of test substances were expressed as percentages of the corresponding control values.

In series [5] the target is T2, CYP2B6. As to the kind of experiment: Metabolism-dependent inhibition assay (IC50 shift) in pooled HLMs, CYP2B6. Conditions: substrate bupropion. The protocol:
as §1, §2

Series [6] addresses T2, CYP2B6. As to the kind of experiment: Determination of CYP inhibition mode and Ki in pooled HLMs, CYP2B6-mediated bupropion hydroxylation.
Procedure: (§3) A 5 min pre-incubation was performed prior to initiating reactions with the addition of 1 mM NADPH. After incubation at 37 °C for 10 min, 200 μL of ice-cold acetonitrile containing 100 nM carbamazepine as an internal standard was added to terminate the reaction. The samples were agitated and centrifuged at 4 °C for 20 min at 3000× g. The supernatants were transferred to a 96-well plate for LC-MS/MS analysis. The experiment was performed using three separate samples.
(§4) Data acquired from the evaluation of enzyme inhibition using various concentrations of substrates and test compounds were fit to different models (competitive, noncompetitive, uncompetitive, or mixed), and inhibition constant (Ki) and goodness of fit values were obtained using GraphPad Prism. The appropriate type of inhibition was selected based on statistical goodness of fit tests including Akaike’s information criterion (AICc) with correction for small sample size and the standard deviation of the residuals (Sy.x).
Series [7] addresses T1, CYP2A6. As to the kind of experiment: Determination of CYP inhibition mode and Ki in pooled HLMs, CYP2A6-mediated coumarin 7-hydroxylation.
Procedure: as §3, §4
The test system of series [8] is CYP isoforms (CYP1A2, CYP2A6, CYP2B6, CYP2C8, CYP2C9, CYP2C19, CYP2D6, CYP2E1, and CYP3A4). As to the kind of experiment: Direct CYP inhibition assay in pooled HLMs, nine CYP isoforms (summary statement). Conditions: up to 50 μM.
The mark [9] stands for this setting: IC50 without NADPH/IC50 with NADPH.
[10] abbreviates: best fit by AICc and Sy.x, Dixon plots.

Chain of CYP2C19 (P33261 whole entry): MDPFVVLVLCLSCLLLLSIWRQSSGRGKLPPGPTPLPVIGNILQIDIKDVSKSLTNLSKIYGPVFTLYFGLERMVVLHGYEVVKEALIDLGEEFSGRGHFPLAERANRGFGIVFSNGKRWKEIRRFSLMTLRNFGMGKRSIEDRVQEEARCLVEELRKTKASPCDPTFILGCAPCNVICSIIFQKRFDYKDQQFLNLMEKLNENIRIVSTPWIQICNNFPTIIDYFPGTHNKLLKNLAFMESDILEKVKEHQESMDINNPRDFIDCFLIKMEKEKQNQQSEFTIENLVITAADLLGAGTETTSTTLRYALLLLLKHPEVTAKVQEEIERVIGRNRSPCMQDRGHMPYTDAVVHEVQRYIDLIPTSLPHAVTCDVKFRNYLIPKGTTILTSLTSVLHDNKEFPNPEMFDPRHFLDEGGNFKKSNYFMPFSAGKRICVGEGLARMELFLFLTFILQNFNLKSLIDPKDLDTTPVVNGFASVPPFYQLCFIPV

With `N[C@@H]1C[C@H]1c1ccccc1` (racemic) [Tranylcypromine, reference compound], the IC50 in series [1] is 0.5 µM.

`C=C(C)C1CC=C(C=O)CC1` (single isomer, unassigned; (+)) [(+)-PAH, (+)-perillaldehyde]: the IC50 in series [1] stood at 10.6 µM; in series [2], 29 µM; in series [3], 50.5 µM.

With `C=C(C)C1CC=C(C=O)CC1` (single isomer, unassigned; (-)) [(−)-PAH, (−)-Perillaldehyde], the IC50 worked out at 3.64 µM in series [1]; 7.99 µM in series [4] (read-out: IC50, pre-incubation with NADPH, CYP2A6, 30 min pre-incubation with NADPH); 8.25 µM in series [4] (read-out: IC50, pre-incubation without NADPH, CYP2A6, 30 min pre-incubation without NADPH); 11.9 µM in series [5] (read-out: IC50, pre-incubation without NADPH, CYP2B6, pooled HLMs, 30 min pre-incubation without NADPH, 95% CI in parentheses); 6.15 µM in series [2]; 18 µM in series [3]. Also, the “IC50 fold-shift, CYP2A6” value in series [4] (setting [9]) is 1.03. The “IC50 fold-shift, CYP2B6” value in series [5] (setting [9]) is 0.78. Also, the “Type of inhibition, CYP2B6” value in series [6] (setting [10]) was “mixed inhibition model”. The “Ki, CYP2B6, uncompetitive model (not selected)” value in series [6] (pooled HLMs, bupropion, 95% CI in parentheses) is 2.77 (2.31–3.28) μM. For the same compound, the Ki was determined as 3.05 µM in series [6] (read-out: Ki, CYP2B6, mixed inhibition model (selected best fit), pooled HLMs, bupropion 12.5–100 μM, 95% CI in parentheses) and 1.72 µM in series [7] (read-out: Ki, CYP2A6, mixed inhibition model (selected best fit), pooled HLMs, coumarin 1.25–10 μM, 95% CI in parentheses). For the same compound, the “Type of inhibition, CYP2A6” value in series [7] (setting [10]) is recorded as “mixed inhibition model”. Besides, in series [7] (pooled HLMs, coumarin, 95% CI in parentheses), the “Ki, CYP2A6, uncompetitive model (not selected)” value is listed as 2.40 (2.04–2.82) μM.

`C=C(C)[C@H]1CC=C(C(=O)O)CC1` [(−)-PA, (−)-perillic acid]: the “Inhibition of activities of CYP isoforms (words)” value in series [8] is “did not significantly inhibit”; in series [8] (listed as PA) it was “not significantly inhibited”.

As to `COc1ccc2[nH]c([S+]([O-])Cc3ncc(C)c(OC)c3C)nc2c1` (stereo not drawn) [Omeprazole, reference compound], the concentration for half-maximal inhibition (IC50) in series [3] was 5.4 µM.

Values taken from PMC11676982, “Heterotropic Activation of Cytochrome P450 3A4 by Perillyl Alcohol” (Pharmaceutics, 2024).
